# Measured values taken from ChEMBL document CHEMBL3507680, “University of Dundee, Gates Library screen for HepG2 cell viability”.
# Test: Human HepG2 cell viability assay in 384 well format
# Format: toxicity, cell-based
# Parameters: dose 125 nL, time 70.5 hour; cytotoxicity at 70.5 h: concentration not given beside the values
# Details: HepG2 cells, read-out: Inhibition
row,Compound,cytotoxicity at 70.5 h [%]
1,CC(C)n1ccc2cc(C(=O)Nc3nc[nH]n3)ccc21,-15.9
2,Cc1nn(C)c(C)c1C1SCC(=O)Nc2c1c(O)nn2C(C)C (configuration not stated),-28.8
3,Cc1nc(C(=O)N2CCN(S(=O)(=O)N(C)C)CC2)c(-c2ccccc2)s1,13.5
4,COCCn1ccc2c(C(=O)NC(C)C)cccc21,-12.3
5,O=C(CCc1nc2cc(Br)cnc2[nH]1)NCCCN1CCOCC1,-17.4
6,CC(C)C1SCC(=O)Nc2c1c(O)nn2C1CCCCC1 (configuration not stated),-23.1
7,CC(C)C1SCC(=O)Nc2c1cnn2-c1ccc(Cl)cc1F (configuration not stated),0.678
8,CC(C)(C)c1csc(CCNC(=O)[C@H](c2ccccc2)n2cnnn2)n1,-5.57
9,Cc1nn(-c2ccc(C(=O)O)cc2)c2c1C(C(F)(F)F)SCC(=O)N2 (configuration not stated),-5.65
10,COc1ccc2c(c1)c(C(=O)Nc1nnn[nH]1)cn2C(C)C,24.1
11,CC(C)n1cc(C(=O)NC2CCS(=O)(=O)C2)c2ccccc2c1=O (configuration not stated),-14.3
12,O=C(NC1CCS(=O)(=O)C1)c1cn(C2CC2)c(=O)c2ccccc12 (configuration not stated),-14.3
13,CC(C)CNC(=O)c1cn(-c2ccccn2)c(=O)c2ccccc12,-7.97
14,Cc1nn(-c2ccc(C(=O)O)cc2)c2c1C(CC(C)C)SCC(=O)N2 (configuration not stated),0.483
15,Cc1nc(C(=O)N2CCN(S(C)(=O)=O)CC2)c(-c2cccc(F)c2)s1,9.8
16,Cc1c(C2SCC(=O)Nc3c2c(O)nn3C2CCCC2)cnn1C (configuration not stated),-22.8
17,Cc1nnsc1-c1nnc2sc(C3CCC3)nn12,-10
18,O=c1c(CN2CCCCCC2)coc(O)c1CN1CCCCCC1,-4.84
19,O=C1CCC(c2ccc(Cl)cc2)=NN1CN1CCSCC1,-15.1
20,O=C1CSC(C(F)(F)F)c2c(O)nn(C3CCCCC3)c2N1 (configuration not stated),15.2
21,CC(C)CCn1cc(C(=O)NC2CCS(=O)(=O)C2)c2ccccc2c1=O (configuration not stated),-12.4

row,Compound,cytotoxicity at 70.5 h [%]
1,COC(=O)CCNC(=O)c1cc(-c2ccc(OC)cc2)nn1C,-3.5
2,O=C(CNC(=O)c1cnccn1)Nc1ncc[nH]1,-33.4
3,O=C(Cn1ccc2c(Cl)cccc21)Nc1nc[nH]n1,-11.2
4,Cc1cc(C)nc(NCCC(=O)NCCn2ccc3ccccc32)n1,5.63
5,COCCn1ccc2cc(C(=O)N3CCN(S(C)(=O)=O)CC3)ccc21,-5.85
6,CN(C)S(=O)(=O)N1CCN(C(=O)c2cc(-c3ccc(Br)s3)n[nH]2)CC1,-10.1
7,O=C(CCc1nnc2ccccn2c1=O)NCc1ccc2c(c1)OCO2,25.1
8,Cn1c(CN2CCOCC2)cc(=O)c(O)c1CN1CCCCC1,-4.64
9,CC(C)c1sc(Br)nc1C(=O)NCc1cccnc1,23.2
10,Cc1ccc(C(=O)Nc2nnc(CC(C)C)s2)c(-n2cnnn2)c1C,29.7
11,CC(C)CNC(=O)C1CC(=O)N(c2n[nH]c3ccccc23)C1 (configuration not stated),-5.36
12,COCCNC(=O)C1CC(=O)N(c2n[nH]c3cccc(F)c23)C1 (configuration not stated),-25
13,CC(C)NC(=O)c1cccc(Oc2ccc3nncn3n2)c1,23.3
14,CC(C)n1cc(C(=O)NC2CN3CCC2CC3)c2ccccc21 (configuration not stated),-20.2
15,COc1ccccc1C1SCC(=O)Nc2c1c(=O)[nH]n2C1CCOCC1 (configuration not stated),-24.1
16,Cc1cc(-c2nn3c(C4CCC4)nnc3s2)on1,-7.88
17,COCCn1cnc2ccc(NC(=O)c3c(C)noc3C)cc2c1=O,30.3
18,COc1ccc2c(ccn2CCC(=O)Nc2n[nH]c(C(C)C)n2)c1,24.3
19,Cn1cnc2ccc(NC(=O)CCCn3cccn3)cc2c1=O,-13.5
20,O=C1CSC(c2ccc(F)c(Cl)c2)c2c(n(C3CCOCC3)[nH]c2=O)N1 (configuration not stated),10.3
21,CC(C)c1sc(Cl)nc1C(=O)N1CCN(Cc2ccccc2)CC1,27.3

row,Compound,cytotoxicity at 70.5 h [%]
1,CCN1CCCC1CNC(=O)Cc1c(C)n[nH]c1-c1ccc(F)cc1 (configuration not stated),22.5
2,O=C(Cn1cnc2ccsc2c1=O)NCCCc1nnc2ccccn12,26.5
3,Cc1noc(C)c1C(=O)Nc1ccc2ncn(CC(C)C)c(=O)c2c1,50.5
4,COc1cn(CC(=O)N2CCN(c3ccc(F)cc3)CC2)c(C)cc1=O,27.9
5,O=C(NCCc1ccccn1)Nc1cc(C(F)(F)F)c[nH]c1=O,-2.62
6,O=C(NCCOc1ccccc1)Nc1cc(C(F)(F)F)c[nH]c1=O,-1.52
7,CC(=O)N1CCN(C(=O)c2csc(-c3ccc(C)cc3C)n2)CC1,14.1
8,Cc1nc(-c2ccc(Cl)s2)sc1C(=O)NC(C)(C)C(N)=O,-4.82
9,CN1CCCN(C(=O)NCc2cc(Br)cs2)CC1,-1.99
10,Cc1noc(C)c1C(=O)NCC(c1cccc(F)c1)N(C)C (configuration not stated),-4.95
11,Cc1ccc(-c2nc(C(=O)N(C)C3CCN(C)CC3)cs2)c(C)c1,-1.64
12,CCOC(=O)c1sc2ccsc2c1CNS(C)(=O)=O,-3.52
13,CC(C)c1nc(C2CCCN2Cc2nnc(C3CCC3)o2)no1 (configuration not stated),14.8
14,C1CC(c2noc(C3CC3)n2)N(Cc2nnc(C3CC3)o2)C1 (configuration not stated),-7.72
15,CCc1nc(CN2CCOC(Cn3cncn3)C2)no1 (configuration not stated),16.6
16,COc1c(CNCCNC(=O)c2cccs2)c(C)nn1C,-10.5
17,CCCc1nc(C(C)(C)NC(=O)C2CC(=O)N(CC(C)C)C2)no1 (configuration not stated),-4.84
18,Cc1ncsc1C(=O)NCCNC(=O)Cc1cccc(F)c1,-6.49
19,Cc1ncc(C(=O)NCCNC(=O)Cc2cccc(F)c2)s1,-6.72
20,CCOc1cc(C)nc(N2CCN(C(=O)Cn3cc(C)cn3)CC2)n1,-0.0989
21,CC(NC(=O)NCCN1CCCC1)c1nncn1C (configuration not stated),-8.29

row,Compound,cytotoxicity at 70.5 h [%]
1,CCOc1cc(C)nc(N2CCN(C(=O)c3cnc[nH]3)CC2)n1,-0.152
2,NC(=O)C1CCCN(C(=O)c2ccn(-c3ccc(F)cc3)n2)C1 (configuration not stated),-5.61
3,CCOc1cc(C)nc(N2CCN(C(=O)c3cscn3)CC2)n1,-4.61
4,O=C(CCN1CCCC1=O)Nc1cnn(-c2ccccc2Cl)c1,-8.1
5,CC(C)Cc1nc(CN2CCOC(Cn3cncn3)C2)no1 (configuration not stated),-8.48
6,Cc1nccc(C(=O)N2CCCC(c3cc(C(F)(F)F)[nH]n3)C2)n1 (configuration not stated),-2.27
7,Cc1noc(C)c1C(=O)N1CCCC(c2cc(C(F)(F)F)[nH]n2)C1 (configuration not stated),11
8,Cc1ccc(C(=O)NS(=O)(=O)c2ccccc2Cl)c(=O)[nH]1,9.73
9,CC(C)c1ccc(CCC(=O)N2CCOCC2c2ncon2)cc1 (configuration not stated),-5.22
10,Cc1nc(CN2CCCC(N(C)CCCc3ccccc3)C2)no1 (configuration not stated),-5.01
11,Cc1nc(CN2CCCC(N(C)CCOCC(F)(F)F)C2)no1 (configuration not stated),-6.75
12,Cc1cc(NC(=O)CN2CCCC2c2c(C)nn(C)c2Cl)on1 (configuration not stated),-0.864
13,N#Cc1ccc(F)c(CN2CCCCC2Cn2cccn2)c1 (configuration not stated),0.631
14,COc1c(C2CCCN2CC(=O)Nc2cc(C)nn2C)c(C)nn1C (configuration not stated),-3.3
15,N#Cc1ccc(CN2CCCC2Cn2cccn2)c(F)c1 (configuration not stated),4.66
16,Cc1nc(CN(C)CC(c2cccs2)N2CCOCC2)no1 (configuration not stated),-1.7
17,O=C(NC1CC1)N1CCN(c2cnccn2)CC1,-1.17
18,Cc1ncc(CN2CCOCC2)c2cc(C(=O)c3ccc(Br)cc3)oc12,-13.8
19,CC(C)c1nn(C)cc1CNC1CCOc2ccccc21 (configuration not stated),-7.85
